Data as given in patent US9969768B1 (KING SAUD UNIVERSITY, priority 2017, dated 2018).

Columns and labels:
[1] = tested on: alloxan-induced diabetic mice; experiment: In vivo oral hypoglycemic activity, acute study; conditions: diabetic mice
Description: The percentage change in blood glucose levels in diabetic mice after oral administration of the test compounds, at a concentration of 200 μg/kg body weight, were determined at 2, 4, 6, and 24 hours.
The synthesized compounds were screened for hypoglycemic activity in vivo using the alloxan-induced diabetic mice model. For the acute study, animals were fasted overnight and the fasting blood serum glucose (SG) level was determined at 0 hours. Then the compounds were administered at a fixed dose of 200 μg/kg body weight orally (homogenized suspension in 0.5% carboxymethyl cellulose (CMC) with Tween 80). Animals in the vehicle group were given an equal amount of 0.5% CMC, while those in the control group were maintained as is. Blood samples were removed from all animals at 2, 4, 6 and 24 hours and percentage change in SG was calculated. See, Dunn, J. S., Letchie, N. G., “Experimental alloxan diabetes in the rat,” The Lancet 242(6265): 384-387 (1943); and Mourao R. H., Silva T. G., et al., “Synthesis and Biological Activity of Novel Acridinylidene and Benzylidene thiazolidinediones,” Eur. J. Med. Chem., 40: 1129-1133 (2005).

[2] = tested on: alloxan-induced diabetic mice; experiment: In vivo oral hypoglycemic activity, sub-acute study
Description: Study animals were fasted overnight, and the fasting SG levels calculated at 0 days. The test compounds were administered at a fixed dose of 200 μg/kg body weight orally (homogenized suspension in 0.5% CMC and permissible amounts of Tween 80) for 21 days at a fixed time. After 21 days, treatment was stopped and animals were left for a rest period of 7 days. Animals in the vehicle group were given an equal amount of 0.5% CMC, while those in the control group were maintained as is. During the study, blood samples were removed from all animals at 7, 14, 21 and 28 days, and the percentage change in SG was calculated. The data obtained were analyzed by one-way ANOVA followed by the Dunnett test. The results were expressed as mean±standard error of mean (SEM) for each group, while p<0.01 or p<0.05 was considered to be statistically significant. The percentage changes in blood glucose levels after oral administration, at 200 μg/kg body weight, were evaluated, and are reported in Table 5.

[3] = target: T1, DPP-IV (Homo sapiens, UniProt P27487); experiment: DPP-IV inhibition activity (fluorescence); type: biochemical; conditions: mean ± S.E.M., n = 6
T1 construct: purchased Sigma
T1 sequence (P27487 whole entry, species assumed): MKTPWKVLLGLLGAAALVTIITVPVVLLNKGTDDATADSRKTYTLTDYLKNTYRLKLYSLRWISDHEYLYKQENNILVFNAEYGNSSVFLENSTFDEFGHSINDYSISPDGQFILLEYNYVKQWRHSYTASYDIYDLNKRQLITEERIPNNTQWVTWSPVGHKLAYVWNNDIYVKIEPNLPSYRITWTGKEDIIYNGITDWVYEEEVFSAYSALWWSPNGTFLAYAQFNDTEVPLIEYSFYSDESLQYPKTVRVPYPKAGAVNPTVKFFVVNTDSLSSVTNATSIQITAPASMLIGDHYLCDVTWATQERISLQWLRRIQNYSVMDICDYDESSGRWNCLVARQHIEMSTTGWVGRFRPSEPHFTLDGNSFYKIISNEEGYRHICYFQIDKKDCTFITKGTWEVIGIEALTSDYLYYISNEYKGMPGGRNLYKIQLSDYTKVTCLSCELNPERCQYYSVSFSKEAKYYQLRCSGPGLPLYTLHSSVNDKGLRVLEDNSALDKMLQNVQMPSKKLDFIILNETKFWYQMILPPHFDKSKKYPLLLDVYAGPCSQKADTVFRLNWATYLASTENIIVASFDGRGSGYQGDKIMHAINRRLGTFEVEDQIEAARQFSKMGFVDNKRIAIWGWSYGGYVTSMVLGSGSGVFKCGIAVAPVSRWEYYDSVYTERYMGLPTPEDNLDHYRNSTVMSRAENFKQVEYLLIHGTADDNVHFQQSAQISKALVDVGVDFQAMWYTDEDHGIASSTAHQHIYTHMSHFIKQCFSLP
Description: A […] reaction system containing DPP-IV (Sigma), a test compound, and 25 mmol/L 4-(2-hydroxyethyl)-1-piperazineethanesulfonic acid (HEPES) buffer (containing 140 mmol/L NaCl, 1% Bovine serum albumin (BSA) and 80 mmol/L MgCl2) was pre-incubated at room temperature for 10 minutes. The reaction was initiated by the addition of […], and the reaction mixture was then incubated at room temperature for 25-45 minutes. […] A negative control (no test compound) and a blank control (no enzyme) were run simultaneously. The test compounds were initially assayed in duplicate at a concentration of 10 mg/mL.

[4] = tested on: PPAR; experiment: PPAR agonist activity, PPRE-Luc dual luciferase reporter in HepG2 cells; type: cell-based; conditions: mean ± S.E.M., n = 6
Description: HepG2 cells were cultured in low glucose Dulbecco's Modified Eagle's medium (DMEM) supplemented with 100 U/mL streptomycin and penicillin. One day prior to transfection, the cells were plated in 96-well plates at 1.5×10^4 cells per well. After reaching 70% confluence, plasmid peroxisome proliferator responsive element-luciferase (PPRE-Luc) with firefly luciferase reporter gene and the control plasmid phRL-TK with renilla luciferase reporter gene were transfected into the cells. After 24 hours, the medium was replaced with either fresh medium (negative control) or fresh medium containing a test compound (10 mg/mL) or pioglitazone (positive control). Non-transfected cells were used as blank. After a further 24 hours, the expression of luciferases was measured using the Dual Luciferase Reporter Gene Assay Kit (Promega). The percent activation (T %) was calculated as [(L1sample−L1Blank)/(L1Negative−L1Blank)]/[(L2Sample−L2Blank)/(L2Negative−L2Blank)]×100%, where L1 represents the value for the value for firefly luciferase and L2 the value for Renilla luciferase. Xing-hua Z., Jufang Y., LiFan, W., Dacheng Y., “Synthesis and antidiabetic activity of β-acetamido ketones,” Acta Pharmaceutica Sinica 1(2):100-105 (2011).

[5] = target: α-Glucosidase from Saccharomyces cerevisiae; experiment: α-Glucosidase inhibitory activity (chromogenic method); type: biochemical; conditions: mean ± S.E.M., n = 6
Description: The α-Glucosidase inhibitory activity of each compound was determined according to the chromogenic method described by Chapdelaine et al with slight modifications. See, Chapdelaine P., Tremblay R. R., Dube, J. Y., “P-Nitrophenol-alpha-D-gluco-pyranoside as substrate for measurement of maltase activity in human semen,” Clin. Chem., 24: 208-211 (1978). α-Glucosidase from Saccharomyces cerevisiae and substrate solution […] (PNPG) were prepared with 0.1 mol L^−1 of Na-phosphate buffer (pH 6.8). The inhibitors were reconstituted in […] phosphate buffer in a 96-well microplate and incubated with […] α-Glucosidase at 37° C. for 15 minutes, and then 30 μL substrate was added. After incubation with substrate for 5 minutes, release of p-nitrophenol was measured at 405 nm by spectrophotometry. Percentage of enzyme inhibition was calculated according to {1−(Asample−Ablank)/Acontrol}×100, where Asample represents absorbance of test samples, Acontrol represents absorbance of solution without sample, and A blank represents absorbance in presence of solution without substrate.

[6] = 2 h after 200 μg/kg body weight orally
[7] = 4 h after 200 μg/kg body weight orally
[8] = 6 h after 200 μg/kg body weight orally
[9] = 24 h after 200 μg/kg body weight orally
[10] = 7 day, 200 μg/kg body weight orally daily
[11] = 7 days rest period after 21 days of treatment, 200 μg/kg orally
[12] = 14 day, 200 μg/kg body weight orally daily
[13] = 21 day, 200 μg/kg body weight orally daily

| Molecule | % Change in SG [1, 6] [%] | % Change in SG [1, 7] [%] | % Change in SG [1, 8] [%] | % Change in SG [1, 9] [%] | % Change in SG [2, 10] [%] | % Change in SG [2, 11] [%] | % Change in SG [2, 12] [%] | % Change in SG [2, 13] [%] | IC50 [3] [µM] | IC50 [4] [µM] | IC50 [5] [µM] |
| --- | --- | --- | --- | --- | --- | --- | --- | --- | --- | --- | --- |
| methyl-2-{N-(morpholino)methane}-3-oxo-18β-olean-12-ene-28-oate [Compound 5] | −70.60 | −79.01 | −80.43 | −75.41 | −60.89 | −84.29 | −70.53 | −85.45 |  |  |  |
| methyl-2-{4-pyridylidene}-3-oxo-18β-Olean-12-en-28-oate [Compound 2] | −74.70 | −81.67 | −84.30 | −80.78 | −62.35 | −86.25 | −71.78 | −87.54 |  |  |  |
| COC(=O)[C@]12CCC(C)(C)C[C@H]1C1=CC[C@@H]3[C@@]4(C)CCC(=O)C(C)(C)[C@@H]4CC[C@@]3(C)[C@]1(C)CC2 [Compound 1, 3-oxo-oleanolic acid methyl ester] | −69.40 | −71.89 | −79.32 | −73.29 | −59.76 | −81.20 | −68.78 | −84.65 | 0.091 ± 0.0009 | 0.12 ± 0.004 | 1.7 ± 0.03 |
| methyl-2-{(4-pyridyl)-N-morpholinylmethane}-3-oxo-18β-olean-12-en-28-oate [Compound 4] | −78.88 | −85.89 | −90.00 | −88.88 | −67.90 | −86.43 | −74.78 | −90.87 | 0.0044 ± 0.0005 | 0.0078 ± 0.0005 | 0.087 ± 0.001 |
